Data reported in patent US11098055B2, “Ester ACC inhibitors and uses thereof” (Gilead Apollo, LLC, priority 2015, dated 2021).
≈ marks a conversion by molar mass, not a printed value. Where two headings read alike, the source gives them in different places.

What was measured:
ACC2 = conditions: enzyme isolated from rat, mouse, monkey and human; cited from earlier work
ACC1 = conditions: enzyme isolated from rat, mouse, monkey and human; cited from earlier work
hACC2 = hACC2 (Homo sapiens, UniProt O00763); test: In vitro ACC2 inhibition assay (ADP-Glo), human ACC2; type: biochemical
Description: (§1) An exemplary procedure for the in vitro ACC inhibition assay, which can be used to determine the inhibitory action of compounds of the invention toward either human (hACC2) or fungal (fACC2) ACC2, follows. The ADP-Glo™ Kinase Assay kit from Promega was used. The ADP-Glo™ Kinase Assay is a luminescent ADP detection assay to measure enzymatic activity by quantifying the amount of ADP produced during an enzyme reaction. The assay is performed in two steps; first, after the enzyme reaction, an equal volume of ADP-Glo™ Reagent is added to terminate the reaction and deplete the remaining ATP. Second, the Kinase Detection Reagent is added to simultaneously convert ADP to ATP and allow the newly synthesized ATP to be measured using a luciferase/luciferin reaction. Luminescence can be correlated to ADP concentrations by using an ATP-to-ADP conversion curve. The detailed procedure is as follows. 50 μL of the compound being tested (600 μM in DMSO) was added to a 384-well dilution plate. The compound was diluted 1:3 in succession in DMSO for each row for 11 wells. 0.5 μL ACC2 working solution was added to 384-well white Optiplate assay plate. 0.5 μL diluted compound solution in each column from step 2 was added to assay plate, each row containing 2 replicates. For the last 2 rows, 0.5 μL negative control (DMSO) was added in one row and 0.5 μL positive control (compound I-97) in the other. The plates were incubated at room temperature for 15 minutes. 5 μL substrate working solution was added to each well to initiate reaction. Final ACC2 reaction concentrations consist of: 5 nM ACC2, 20 μM ATP, 20 μM acetyl-CoA, 12 mM NaHCO3, 0.01% Brij35, 2 mM DTT, 5% DMSO, test compound concentrations: 30 μM, 10 μM, 3.33 μM, 1.11 μM, 0.37 μM, 0.123 μM, 0.0411 μM, 0.0137 μM, 0.00457 μM, 0.00152 μM, and 0.00051 μM. Plates were incubated at room temperature for 60 minutes. 10 μL ADP glo reagent was added. Plates were incubated at room temperature for 40 minutes. 20 μL kinase detection reagent was added. Plates were incubated at room temperature for 40 minutes, and then read on a Perkin Elmer EnVision 2104 plate reader for luminescence as Relative Light Units (RLU).
(§2) Data for each concentration, as well as the positive and negative controls, were averaged, and the standard deviation calculated. Percent inhibition was calculated by the formula: 100×(average negative control−compound)/(average negative control−average positive control). The IC50 for each compound was calculated by fitting the data with a non-linear regression equation: Y=Bottom+(Top−Bottom)/(1+10^((Log IC50−X)*HillSlope)), where X is the log of compound concentration and Y is percent inhibition.

fACC2 = fACC2 (UniProt Q00955); test: In vitro ACC2 inhibition assay (ADP-Glo), fungal ACC2; type: biochemical
Description: as §1, §2

[1] = tested on: Fusarium virguliforme (Fv); test: Growth inhibition assay of fungal pathogens; type: cell-based; conditions: 48 h, Table 4b, read-out: Concentration at 90% Inhibition Fv
Description: (§3) Compounds of the present invention were evaluated in a growth inhibition assay to determine the ability to control the growth of fungal pathogens, such as Botrtyis cinerea (Bc), Collectotrichum graminicola (Cg), Diplodia maydis (Dm), Fusarium moniliforme (Fm), Fusarium virguhforme (Fv), Phytophthora capsici (Pc), Rhizoctonia solani (Rs), and Septoria tritici (St). Compounds to be tested were dissolved in DMSO at 2.5 mg/ml to produce compound stock solutions (“stocks”). Stocks were diluted with DMSO by a five-fold dilution in a 96-well stock plate, and two sets of final concentrations of 50, 10, and 2 ppm or 2, 0.4, and 0.08 ppm were obtained in vitro. A set of positive controls was also prepared, with various concentrations of Soraphen (2, 0.4, and 0.08 ppm), Metalaxyl (1.1, 0.22, and 0.04 ppm), and Metconazole (2, 0.4, and 0.08 ppm or 0.2, 0.04, and 0.008 ppm) after the five-fold dilutions. Negative controls on each plate included 2% DMSO, water, and a blank (media+2% DMSO). Fungal spores were isolated from previously sub-cultured plates of Botrtyis cinerea (Bc), Collectotrichum graminicola (Cg), Diplodia maydis (Dm), Fusarium moniliforme (Fm), Fusarium virguliforme (Fv), Phytophthora capsici (Pc), and Septoria tritici (St). The isolated spores were diluted to individual concentrations with a 17% V8 liquid media. For Rhizoctonia solani (Rs) and Pythium irregulare, 1.5 mm mycelial plugs were used in place of spores and ¼ Potato Dextrose Broth (PDB) was used for dilution. The spore concentrations and plug sizes were based on growth curves generated at 48 hours for each pathogen. In a second 96-well plate, the spores or mycelial plugs, media, diluted compound solutions, and controls were combined. Once the compound was added, a true final concentration of compound in each well was measured by an OD600 reading, which adjusted for any compound precipitation that might have occurred in the well. Plate readings were repeated at both 24 and 48 hours. The blank negative control was used as a background subtraction. Additional visual ratings were performed at both 24 and 48 hours for checking on precipitation and confirming efficacy. Visual and OD600 ratings of the compounds at 48 hours were compared to the 2% DMSO negative control, and the percent of pathogen growth inhibition was determined based on those values.

Septoria tritici (St) = test: Growth inhibition assay of fungal pathogens; type: cell-based; conditions: Zymoseptoria tritici, 48 h, Table 4b, read-out: Concentration at 90% Inhibition St
Description: as §3

[2] = tested on: Phytophthora capsici (Pc); test: Growth inhibition assay of fungal pathogens; type: cell-based; conditions: 48 h, Table 4b, read-out: Concentration at 90% Inhibition Pc
Description: as §3

Botrtyis cinerea (Bc) = test: Growth inhibition assay of fungal pathogens; type: cell-based; conditions: 48 h, Table 4b, read-out: Concentration at 90% Inhibition Bc
Description: as §3

[3] = tested on: Collectotrichum graminicola (Cg); test: Growth inhibition assay of fungal pathogens; type: cell-based; conditions: 48 h, Table 4b, read-out: Concentration at 90% Inhibition Cg
Description: as §3

Rhizoctonia solani (Rs) = test: Growth inhibition assay of fungal pathogens; type: cell-based; conditions: 48 h, Table 4b, read-out: Concentration at 90% Inhibition Rs
Description: as §3

Diplodia maydis (Dm) = test: Growth inhibition assay of fungal pathogens; type: cell-based; conditions: Stenocarpella maydis, 48 h, Table 4b, read-out: Concentration at 90% Inhibition Dm
Description: as §3

[4] = tested on: Fusarium moniliforme (Fm); test: Growth inhibition assay of fungal pathogens; type: cell-based; conditions: Fusarium verticillioides, 48 h, read-out: Concentration at 90% Inhibition Fm
Description: as §3

C. krusei ATCC 6258 = test: Anti-Fungal (Candida) Activity Assay, broth microtiter MIC; type: cell-based, Candida krusei; conditions: Pichia kudriavzevii, ATCC6258, 48 h, 3 replicates, MIC read at 48 h
Description: (§4) Compounds of the present invention were evaluated in an Anti-Fungal Activity Assay. An exemplary procedure for the assay, which measures the susceptibility of various Candida species to anti-fungal compounds, follows. Compounds to be tested (including fluconazole and amphotericin B) were dissolved in DMSO to obtain a solution having a concentration of 1 mg/mL. These stock solutions were sterile filtered using a 0.22 um nylon syringe filter, then diluted in sterile water to achieve a final concentration of 128 μg/mL.
(§5) All species were grown from frozen stock by directly plating on to freshly prepared Sabouraud Dextrose agar (BD, Difco) and incubated overnight in ambient air at 35° C. for 24 h. A direct suspension was prepared in RPMI 1640+MOPS (Lonza, Biowhittaker) by taking individual colonies from the overnight cultures using sterile swabs soaked in sterile saline. The concentration of the suspension was determined using pre-determined standard curves. These suspensions were then diluted down to 5×10^3 CFU/mL to achieve a final concentration of 2.5×10^3 CFU/mL once added to the microtiter plate as per CLSI guidelines (M27-A3, Vol. 28 No. 14).
(§6) Broth microtiter MIC challenge plates were prepared following CLSI guidelines (M27-A3, Vol. 28 No. 14). The original CLSI guidelines focused on reading Candida MICs after 48 h of incubation. As reading after only 24 h offers a clear advantage of patient care, QC limits are being established for all drugs at 24 h. That being said there are no known interpretive breakpoints for amphotericin B at 24 h and the current fluconazole interpretive breakpoints are based on a 48 h reading. The MIC for the test compounds were recorded at 48 h. All MIC determinations were achieved by visually comparing the growth found in the antibiotic challenged wells to that of the growth control.

C. albicans ATCC 90028 = test: as above; type: cell-based; conditions: ATCC90028, 48 h, 3 replicates, MIC read at 48 h
Description: as §4, §5, §6

[5] = tested on: C. parapsilosis ATCC 22019; test: as above; type: cell-based; conditions: Lodderomyces parapsilosis, ATCC22019, 48 h, 3 replicates, MIC read at 48 h
Description: as §4, §5, §6

Sequence of hACC2 (O00763 whole entry): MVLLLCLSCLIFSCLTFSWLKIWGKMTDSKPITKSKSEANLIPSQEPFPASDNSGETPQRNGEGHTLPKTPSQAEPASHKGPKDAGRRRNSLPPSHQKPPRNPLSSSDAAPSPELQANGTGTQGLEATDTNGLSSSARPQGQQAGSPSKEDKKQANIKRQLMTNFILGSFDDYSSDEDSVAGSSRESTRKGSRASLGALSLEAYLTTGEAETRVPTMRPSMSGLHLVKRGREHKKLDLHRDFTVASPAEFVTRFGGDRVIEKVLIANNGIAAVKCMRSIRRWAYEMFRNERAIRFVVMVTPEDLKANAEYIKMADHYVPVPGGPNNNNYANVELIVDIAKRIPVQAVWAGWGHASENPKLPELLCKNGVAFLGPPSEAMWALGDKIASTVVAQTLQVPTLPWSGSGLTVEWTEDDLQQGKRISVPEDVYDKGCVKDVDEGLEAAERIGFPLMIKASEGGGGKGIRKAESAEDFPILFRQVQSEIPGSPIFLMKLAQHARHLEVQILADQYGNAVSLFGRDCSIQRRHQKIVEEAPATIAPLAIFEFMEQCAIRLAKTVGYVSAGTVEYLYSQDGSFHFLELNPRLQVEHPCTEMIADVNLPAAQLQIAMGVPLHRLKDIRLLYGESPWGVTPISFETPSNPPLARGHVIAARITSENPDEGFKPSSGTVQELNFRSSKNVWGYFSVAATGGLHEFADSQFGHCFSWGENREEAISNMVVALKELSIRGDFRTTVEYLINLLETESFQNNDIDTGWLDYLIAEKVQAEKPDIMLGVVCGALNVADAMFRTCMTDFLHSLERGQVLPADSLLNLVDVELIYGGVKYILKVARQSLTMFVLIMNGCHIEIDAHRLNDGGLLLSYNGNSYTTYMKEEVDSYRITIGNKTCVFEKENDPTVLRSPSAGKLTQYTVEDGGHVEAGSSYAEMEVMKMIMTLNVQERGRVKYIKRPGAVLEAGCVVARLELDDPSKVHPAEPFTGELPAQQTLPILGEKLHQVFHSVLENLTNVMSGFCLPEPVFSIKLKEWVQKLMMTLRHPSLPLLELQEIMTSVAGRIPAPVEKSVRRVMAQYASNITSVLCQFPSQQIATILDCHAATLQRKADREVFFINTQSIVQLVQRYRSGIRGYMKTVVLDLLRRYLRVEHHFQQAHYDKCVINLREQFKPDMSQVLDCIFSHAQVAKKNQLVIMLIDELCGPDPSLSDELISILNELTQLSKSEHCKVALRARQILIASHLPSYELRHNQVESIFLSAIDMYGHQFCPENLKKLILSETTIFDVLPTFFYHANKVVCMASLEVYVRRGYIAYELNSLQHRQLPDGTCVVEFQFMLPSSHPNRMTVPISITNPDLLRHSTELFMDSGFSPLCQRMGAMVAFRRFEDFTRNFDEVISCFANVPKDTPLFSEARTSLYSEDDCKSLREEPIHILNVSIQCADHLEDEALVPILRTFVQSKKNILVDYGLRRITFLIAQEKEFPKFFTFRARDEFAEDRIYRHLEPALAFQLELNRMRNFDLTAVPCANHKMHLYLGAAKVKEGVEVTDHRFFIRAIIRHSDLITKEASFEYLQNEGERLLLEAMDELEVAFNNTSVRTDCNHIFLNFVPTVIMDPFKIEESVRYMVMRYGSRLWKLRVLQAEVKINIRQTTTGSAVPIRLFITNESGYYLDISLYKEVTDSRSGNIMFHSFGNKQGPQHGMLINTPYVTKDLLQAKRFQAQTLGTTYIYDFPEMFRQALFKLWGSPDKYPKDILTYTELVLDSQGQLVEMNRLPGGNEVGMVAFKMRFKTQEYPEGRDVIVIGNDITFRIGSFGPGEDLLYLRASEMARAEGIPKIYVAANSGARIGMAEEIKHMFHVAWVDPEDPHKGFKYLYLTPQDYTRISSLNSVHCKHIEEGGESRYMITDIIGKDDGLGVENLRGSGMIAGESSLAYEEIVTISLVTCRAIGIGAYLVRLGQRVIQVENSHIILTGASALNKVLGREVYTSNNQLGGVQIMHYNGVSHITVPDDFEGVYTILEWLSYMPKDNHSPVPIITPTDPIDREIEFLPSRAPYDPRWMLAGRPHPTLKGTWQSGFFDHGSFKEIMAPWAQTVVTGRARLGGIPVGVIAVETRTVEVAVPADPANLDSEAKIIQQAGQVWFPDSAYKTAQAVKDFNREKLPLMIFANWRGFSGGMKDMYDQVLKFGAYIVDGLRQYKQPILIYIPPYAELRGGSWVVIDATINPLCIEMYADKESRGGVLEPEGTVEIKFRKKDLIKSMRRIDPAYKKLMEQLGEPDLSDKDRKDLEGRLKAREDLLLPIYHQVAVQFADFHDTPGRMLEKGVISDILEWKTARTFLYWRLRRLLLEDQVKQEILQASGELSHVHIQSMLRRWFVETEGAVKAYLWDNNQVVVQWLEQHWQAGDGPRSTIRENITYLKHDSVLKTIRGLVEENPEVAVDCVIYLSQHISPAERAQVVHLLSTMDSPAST
Sequence of fACC2 (Q00955 whole entry): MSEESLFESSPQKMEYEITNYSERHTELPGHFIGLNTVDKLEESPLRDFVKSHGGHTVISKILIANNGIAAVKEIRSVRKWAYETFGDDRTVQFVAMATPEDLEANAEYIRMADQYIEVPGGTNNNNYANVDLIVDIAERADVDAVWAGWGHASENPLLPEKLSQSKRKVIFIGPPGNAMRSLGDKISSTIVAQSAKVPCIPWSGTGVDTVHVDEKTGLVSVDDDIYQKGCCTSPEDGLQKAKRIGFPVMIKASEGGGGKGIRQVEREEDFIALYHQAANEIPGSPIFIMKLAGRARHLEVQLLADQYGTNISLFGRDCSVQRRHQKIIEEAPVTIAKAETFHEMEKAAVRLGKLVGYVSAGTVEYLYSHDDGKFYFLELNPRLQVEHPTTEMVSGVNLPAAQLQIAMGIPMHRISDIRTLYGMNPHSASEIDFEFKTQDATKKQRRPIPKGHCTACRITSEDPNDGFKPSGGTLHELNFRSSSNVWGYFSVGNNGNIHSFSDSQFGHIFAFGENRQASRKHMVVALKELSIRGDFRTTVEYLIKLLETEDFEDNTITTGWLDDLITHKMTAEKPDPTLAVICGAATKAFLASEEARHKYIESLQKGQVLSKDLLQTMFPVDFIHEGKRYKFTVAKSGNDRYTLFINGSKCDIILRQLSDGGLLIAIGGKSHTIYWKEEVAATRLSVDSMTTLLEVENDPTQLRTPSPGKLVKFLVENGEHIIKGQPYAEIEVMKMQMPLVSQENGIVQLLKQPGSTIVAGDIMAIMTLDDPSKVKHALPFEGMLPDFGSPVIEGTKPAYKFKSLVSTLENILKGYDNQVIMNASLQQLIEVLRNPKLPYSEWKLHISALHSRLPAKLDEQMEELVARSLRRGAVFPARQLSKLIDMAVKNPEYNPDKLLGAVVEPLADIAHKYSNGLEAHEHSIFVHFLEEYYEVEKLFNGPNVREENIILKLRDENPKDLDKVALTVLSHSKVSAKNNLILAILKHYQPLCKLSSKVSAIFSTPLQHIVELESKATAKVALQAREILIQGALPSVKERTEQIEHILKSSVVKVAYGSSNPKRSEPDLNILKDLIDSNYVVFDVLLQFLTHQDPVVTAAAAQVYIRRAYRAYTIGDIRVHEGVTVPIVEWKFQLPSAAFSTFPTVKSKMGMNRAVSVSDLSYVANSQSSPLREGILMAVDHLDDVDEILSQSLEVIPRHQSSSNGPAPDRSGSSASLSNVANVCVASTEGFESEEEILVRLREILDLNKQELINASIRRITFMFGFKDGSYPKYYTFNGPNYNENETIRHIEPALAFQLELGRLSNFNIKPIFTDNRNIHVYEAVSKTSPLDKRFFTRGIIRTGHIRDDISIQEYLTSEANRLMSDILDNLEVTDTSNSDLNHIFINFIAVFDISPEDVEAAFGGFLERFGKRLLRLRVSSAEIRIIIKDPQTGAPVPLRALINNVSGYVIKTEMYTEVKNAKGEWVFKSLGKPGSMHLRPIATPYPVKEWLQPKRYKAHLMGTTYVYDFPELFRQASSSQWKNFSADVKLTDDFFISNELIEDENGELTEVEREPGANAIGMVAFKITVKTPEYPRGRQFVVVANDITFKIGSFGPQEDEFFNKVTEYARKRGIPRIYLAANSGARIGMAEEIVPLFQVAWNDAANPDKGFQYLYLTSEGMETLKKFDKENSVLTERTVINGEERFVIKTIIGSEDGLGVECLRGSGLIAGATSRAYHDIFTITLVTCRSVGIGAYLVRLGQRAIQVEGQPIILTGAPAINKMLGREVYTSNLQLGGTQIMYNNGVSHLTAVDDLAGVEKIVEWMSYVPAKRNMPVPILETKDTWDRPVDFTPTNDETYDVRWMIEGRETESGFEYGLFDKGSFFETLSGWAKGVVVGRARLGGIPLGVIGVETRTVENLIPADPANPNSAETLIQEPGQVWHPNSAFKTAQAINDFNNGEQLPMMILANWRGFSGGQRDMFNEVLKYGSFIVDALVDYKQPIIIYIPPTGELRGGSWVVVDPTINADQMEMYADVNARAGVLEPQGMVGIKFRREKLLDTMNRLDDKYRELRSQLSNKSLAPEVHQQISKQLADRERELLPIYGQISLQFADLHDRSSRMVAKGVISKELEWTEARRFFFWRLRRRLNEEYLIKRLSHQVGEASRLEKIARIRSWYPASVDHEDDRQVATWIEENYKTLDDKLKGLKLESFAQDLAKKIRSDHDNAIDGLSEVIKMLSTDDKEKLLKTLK

## O=C(c1c2ccccc2cc2ccccc12)N1CCC(N2CCC[C@@H](C(=O)N3CCOCC3)C2)CC1 [CP-640186]
ACC2
  IC50: ~60 nM
ACC1
  IC50: ~60 nM

## CCOC(=O)c1sc2c(c1C)c(=O)n(C(C)(C)C(=O)NC(C)C)c(=O)n2CCc1cc(F)ccc1OCCC#N [Compound I-45, ethyl 1-(2-(2-cyanoethoxy)-5-fluorophenethyl)-3-(1-(isopropylamino)-2-methyl-1-oxopropan-2-yl)-5-methyl-2,4-dioxo-1,2,3,4-tetrahydro-thieno[2,3-d]pyrimidine-6-carboxylate]
hACC2; Table 2b (additional results)
  IC50: ≥ 40 nM
fACC2; Table 2b (additional results)
  IC50: 3 to 10 nM
[1]
  IC90: 2 µg/mL (≈ 3.49 µM)
Septoria tritici (St)
  IC90: ≥ 50 µg/mL
[2]
  IC90: ≥ 50 µg/mL
Botrtyis cinerea (Bc)
  IC90: 10 µg/mL (≈ 17.5 µM)
[3]
  IC90: ≥ 50 µg/mL
Rhizoctonia solani (Rs)
  IC90: ≥ 50 µg/mL
Diplodia maydis (Dm)
  IC90: ≥ 50 µg/mL
[4]; Table 4b
  IC90: 2 µg/mL (≈ 3.49 µM)

## CCOC(=O)c1sc2c(c1C)c(=O)n([C@H](C)C(=O)N(C)C(C)C)c(=O)n2C[C@H](OCCO)c1cc(F)ccc1OC [Compound I-30, ethyl 1-((R)-2-(5-fluoro-2-methoxyphenyl)-2-(2-hydroxy-ethoxy)ethyl)-3-((R)-1-(isopropyl(methyl)amino)-1-oxopropan-2-yl)-5-methyl-2,4-dioxo-1,2,3,4-tetrahydrothieno[2,3-d]pyrimidine-6-carboxylate]
hACC2; Table 2b (additional results)
  IC50: 10 to 40 nM
C. krusei ATCC 6258; Table 3b (additional results)
  MIC: 0.25 to 1 µg/mL (≈ 0.421 to 1.68 µM)
C. albicans ATCC 90028; Table 3b (additional results)
  MIC: 1.1 to 2 µg/mL (≈ 1.85 to 3.37 µM)
[5]; Table 3b (additional results)
  MIC: 0.25 to 1 µg/mL (≈ 0.421 to 1.68 µM)
fACC2; Table 2b (additional results)
  IC50: 0.3 to 3 nM

## CCNC(=O)C(C)(C)n1c(=O)c2c(C)c(C(=O)OCC)sc2n(C[C@H](OC2CCOCC2)c2ccccc2OC)c1=O [Compound I-1, ethyl (R)-3-(1-(ethylamino)-2-methyl-1-oxopropan-2-yl)-1-(2-(2-methoxyphenyl)-2-((tetrahydro-2H-pyran-4-yl)oxy)ethyl)-5-methyl-2,4-dioxo-1,2,3,4-tetrahydrothieno[2,3-d]pyrimidine-6-carboxylate]
hACC2; Table 2a
  IC50: 3 to 10 nM
hACC2; Table 2b (additional results)
  IC50: 3 to 10 nM
C. krusei ATCC 6258; Table 3a
  MIC: 0.25 to 1 µg/mL (≈ 0.415 to 1.66 µM)
C. krusei ATCC 6258; Table 3b (additional results)
  MIC: 2.1 to 4 µg/mL (≈ 3.49 to 6.65 µM)
C. albicans ATCC 90028; Table 3a
  MIC: 0.25 to 1 µg/mL (≈ 0.415 to 1.66 µM)
C. albicans ATCC 90028; Table 3b (additional results)
  MIC: 0.25 to 1 µg/mL (≈ 0.415 to 1.66 µM)
[5]; Table 3a
  MIC: 1.1 to 2 µg/mL (≈ 1.83 to 3.32 µM)
[5]; Table 3b (additional results)
  MIC: 2.1 to 4 µg/mL (≈ 3.49 to 6.65 µM)
fACC2; Table 2a
  IC50: 0.6 to 3 nM
fACC2; Table 2b (additional results)
  IC50: 0.3 to 3 nM
[4]; Table 4a
  IC90: ≥ 50 µg/mL
[4]; Table 4b
  IC90: ≥ 50 µg/mL
